From ChEMBL document CHEMBL1201862, “PubChem BioAssay data set” (2004)
Active and inactive are the calls of the source.

Columns and labels:
[1] = biological target: T1, Ubiquitin-conjugating enzyme E2 N (Homo sapiens, UniProt P61088); format: functional
T1 sequence (P61088 whole entry): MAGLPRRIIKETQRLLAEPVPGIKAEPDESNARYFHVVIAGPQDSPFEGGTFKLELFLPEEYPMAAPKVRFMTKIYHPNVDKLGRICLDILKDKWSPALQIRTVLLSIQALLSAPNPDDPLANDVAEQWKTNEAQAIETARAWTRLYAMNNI

Bcl-2-related protein A1 = biological target: T2, Bcl-2-related protein A1 (Mus musculus, UniProt Q07440); format: functional;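 further: confirmatory dose–response counterscreen on Bfl-1, used to check hits from a UBC13 polyubiquitin inhibitor campaign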
T2 sequence (Q07440 whole entry): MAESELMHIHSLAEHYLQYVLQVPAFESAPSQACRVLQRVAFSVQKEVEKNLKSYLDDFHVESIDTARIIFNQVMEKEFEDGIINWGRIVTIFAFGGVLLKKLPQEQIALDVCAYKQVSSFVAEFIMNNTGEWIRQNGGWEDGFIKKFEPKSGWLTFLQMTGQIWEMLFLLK

[2] = biological target: T1, Ubiquitin-conjugating enzyme E2 N; format: functional; remark: listed apart in the source
[3] = biological target: DNA dC->dU-editing enzyme APOBEC-3G (Homo sapiens, UniProt Q9HC16); format: functional;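 further: Dose-response counterscreen measuring inhibition of APOBEC3G DNA deaminase activity, run while confirming APOBEC3A inhibitors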
Chain of DNA dC->dU-editing enzyme APOBEC-3G (Q9HC16 whole entry): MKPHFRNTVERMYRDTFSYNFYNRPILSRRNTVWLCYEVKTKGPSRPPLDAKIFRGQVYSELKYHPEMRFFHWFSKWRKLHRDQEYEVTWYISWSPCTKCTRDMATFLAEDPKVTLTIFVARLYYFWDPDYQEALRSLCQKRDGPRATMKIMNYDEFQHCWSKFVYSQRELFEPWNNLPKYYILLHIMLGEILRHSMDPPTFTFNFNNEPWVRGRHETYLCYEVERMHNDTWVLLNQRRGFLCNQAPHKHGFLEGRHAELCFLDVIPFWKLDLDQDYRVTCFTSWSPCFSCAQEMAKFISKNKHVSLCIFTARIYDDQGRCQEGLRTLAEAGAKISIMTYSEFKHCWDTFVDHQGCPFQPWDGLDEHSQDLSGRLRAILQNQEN

[4] = biological target: DNA dC->dU-editing enzyme APOBEC-3A (Homo sapiens, UniProt P31941); test: Dose Response confirmation of small molecule APOBEC3A DNA Deaminase Inhibitors via a fluorescence-based single-stranded DNA deaminase assay. [Related pubchem assays (depositor defined):AID493011, AID493024]; format: functional
Chain of DNA dC->dU-editing enzyme APOBEC-3A (P31941 whole entry): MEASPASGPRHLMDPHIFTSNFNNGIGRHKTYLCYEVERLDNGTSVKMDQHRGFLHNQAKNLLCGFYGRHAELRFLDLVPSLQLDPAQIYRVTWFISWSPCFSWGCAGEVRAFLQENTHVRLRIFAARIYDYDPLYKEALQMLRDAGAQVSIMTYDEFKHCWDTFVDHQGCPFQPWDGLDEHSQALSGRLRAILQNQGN

[5] = growth inhibition of PfATP4-mutant resistant parasites – NITD609-resistant line, SYBR Green, dry powder, dose response (AID 1159571); format: functional, cell-based;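 further: parasites synchronized at ring stage by sorbitol before testing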
[6] = toxicity to human HepG2 hepatoma cells – cell-based, plate reader, dry powder samples, cytotoxicity control, dose response (AID 1159569); format: functional;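 further: inhibitor potency with signal falling toward the positive control level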
[7] = P. falciparum Dd2 growth inhibitors, dose response, SYBR Green, cherry-picked samples (AID 1159567); format: functional, cell-based
[8] = growth inhibition of yeast DHODH-expressing 3D7 parasites – SYBR Green, dry powder samples, dose response (AID 1159570); format: functional, cell-based;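 further: parasite growth measured after 72 hours of compound exposure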
[9] = Dd2 malaria parasite growth inhibition potency – SYBR Green, dry powder samples, dose response (AID 1159566); format: functional, cell-based;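 further: potency for growth inhibition with lower SYBR green DNA signal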
[10] = HIV-1 Vif–A3G interaction blockers – biochemical, TR-FRET, GST-Vif 1-94, biotin-A3G peptide, dose response retest, primary screen (AID 1117319); format: functional;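 further: TR-FRET signal of purified GST-Vif binding a biotinylated A3G peptide; inhibitors lower the FRET signal by blocking Vif and A3G binding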
Cytochrome P450 2C9 = Cytochrome P450 2C9 (Homo sapiens, UniProt P11712)
Chain of Cytochrome P450 2C9 (P11712 whole entry): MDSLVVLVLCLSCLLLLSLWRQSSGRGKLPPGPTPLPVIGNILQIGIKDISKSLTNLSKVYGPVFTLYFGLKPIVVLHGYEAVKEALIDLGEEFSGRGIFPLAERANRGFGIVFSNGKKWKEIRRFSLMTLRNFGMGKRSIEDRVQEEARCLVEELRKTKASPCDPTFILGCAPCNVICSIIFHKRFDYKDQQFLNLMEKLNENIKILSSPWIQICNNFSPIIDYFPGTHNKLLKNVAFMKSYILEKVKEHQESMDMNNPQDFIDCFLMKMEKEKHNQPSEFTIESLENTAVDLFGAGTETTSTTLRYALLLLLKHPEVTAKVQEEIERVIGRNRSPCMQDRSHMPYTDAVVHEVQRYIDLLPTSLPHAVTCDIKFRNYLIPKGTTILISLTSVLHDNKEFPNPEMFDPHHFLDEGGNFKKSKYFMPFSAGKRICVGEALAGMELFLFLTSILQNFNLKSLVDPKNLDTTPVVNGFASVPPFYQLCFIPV

[11] = biological target: T3, Zinc finger protein mex-5 (Caenorhabditis elegans, UniProt Q9XUB2); test: potency of MEX-5 RNA-binding blockers – biochemical, C. elegans, fluorescence polarization, dose response (AID 1960)
T3 sequence (Q9XUB2 whole entry): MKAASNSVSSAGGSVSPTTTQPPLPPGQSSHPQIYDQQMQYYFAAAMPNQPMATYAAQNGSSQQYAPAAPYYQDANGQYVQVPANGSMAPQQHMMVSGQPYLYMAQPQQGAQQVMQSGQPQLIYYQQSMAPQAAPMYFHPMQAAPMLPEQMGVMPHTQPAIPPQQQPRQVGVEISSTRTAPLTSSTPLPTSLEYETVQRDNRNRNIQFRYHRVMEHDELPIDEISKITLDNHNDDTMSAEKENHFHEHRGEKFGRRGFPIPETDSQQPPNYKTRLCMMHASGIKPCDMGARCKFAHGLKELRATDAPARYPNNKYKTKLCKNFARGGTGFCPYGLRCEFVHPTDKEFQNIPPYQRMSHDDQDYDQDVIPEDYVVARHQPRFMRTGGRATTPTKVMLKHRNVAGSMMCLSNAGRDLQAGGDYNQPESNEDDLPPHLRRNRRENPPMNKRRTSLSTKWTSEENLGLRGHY

[12] = biological target: T4, RNA-binding protein pos-1 (Caenorhabditis elegans, UniProt G5EF15); test: disruptors of C. elegans POS-1 RNA interaction – biochemical, fluorescence polarization, dose response (AID 1964);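 further: purified POS-1 fused to maltose binding protein made in E. coli; potency of compounds blocking POS-1 binding to fluorescent RNA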
T4 sequence (G5EF15 whole entry): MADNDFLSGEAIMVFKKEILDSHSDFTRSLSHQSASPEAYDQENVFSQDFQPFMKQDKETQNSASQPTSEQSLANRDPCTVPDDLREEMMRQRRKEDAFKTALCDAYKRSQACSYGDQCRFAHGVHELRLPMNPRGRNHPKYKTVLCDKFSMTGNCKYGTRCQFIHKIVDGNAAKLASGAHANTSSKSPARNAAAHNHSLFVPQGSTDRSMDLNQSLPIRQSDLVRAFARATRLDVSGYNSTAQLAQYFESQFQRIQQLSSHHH

Cytochrome P450 2D6 = Cytochrome P450 2D6 (Homo sapiens, UniProt P10635);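 further: CYP2D6 member of a cytochrome P450 panel assay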
Chain of Cytochrome P450 2D6 (P10635 whole entry): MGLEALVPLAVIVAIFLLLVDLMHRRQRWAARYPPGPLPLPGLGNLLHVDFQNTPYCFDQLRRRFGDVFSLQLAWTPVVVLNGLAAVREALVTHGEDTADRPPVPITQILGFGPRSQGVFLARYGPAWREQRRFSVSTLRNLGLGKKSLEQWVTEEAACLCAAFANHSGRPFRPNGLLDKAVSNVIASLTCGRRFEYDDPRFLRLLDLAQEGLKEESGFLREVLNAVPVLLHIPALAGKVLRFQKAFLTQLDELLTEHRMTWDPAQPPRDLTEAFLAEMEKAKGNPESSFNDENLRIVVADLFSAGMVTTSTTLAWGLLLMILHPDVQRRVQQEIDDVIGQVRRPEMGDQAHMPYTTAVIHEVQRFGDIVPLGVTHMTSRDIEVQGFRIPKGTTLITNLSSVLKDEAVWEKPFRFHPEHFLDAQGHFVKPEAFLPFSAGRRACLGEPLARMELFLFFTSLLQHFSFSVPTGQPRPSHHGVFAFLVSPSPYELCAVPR

[13] = NIH3T3 cell viability loss – ATP luminescence, mouse fibroblasts, counter-screen, dose response (AID 2010); format: functional, cell-based;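 further: cells exposed to compound for about 90 hours before reading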
[14] = Trypanosoma cruzi growth suppression in host cells – NIH3T3 host cells, beta-gal luminescence, confirmation (AID 2044); format: functional, cell-based;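 further: intracellular parasites grown in NIH/3T3 mouse fibroblasts as host cells; luminescent beta-galactosidase reporter signal from transgenic T. cruzi replicating inside host cells; inhibitors lower the luminescence signal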
[15] = biological target: T5, Short transient receptor potential channel 4 (Mus musculus, UniProt Q9QUQ5); test: calcium entry via TRPC4 opening agents – cell-based, HEK293 TRPC4/mu-opioid, Fluo-4 calcium, dose response (AID 434937); format: functional
T5 sequence (Q9QUQ5 whole entry): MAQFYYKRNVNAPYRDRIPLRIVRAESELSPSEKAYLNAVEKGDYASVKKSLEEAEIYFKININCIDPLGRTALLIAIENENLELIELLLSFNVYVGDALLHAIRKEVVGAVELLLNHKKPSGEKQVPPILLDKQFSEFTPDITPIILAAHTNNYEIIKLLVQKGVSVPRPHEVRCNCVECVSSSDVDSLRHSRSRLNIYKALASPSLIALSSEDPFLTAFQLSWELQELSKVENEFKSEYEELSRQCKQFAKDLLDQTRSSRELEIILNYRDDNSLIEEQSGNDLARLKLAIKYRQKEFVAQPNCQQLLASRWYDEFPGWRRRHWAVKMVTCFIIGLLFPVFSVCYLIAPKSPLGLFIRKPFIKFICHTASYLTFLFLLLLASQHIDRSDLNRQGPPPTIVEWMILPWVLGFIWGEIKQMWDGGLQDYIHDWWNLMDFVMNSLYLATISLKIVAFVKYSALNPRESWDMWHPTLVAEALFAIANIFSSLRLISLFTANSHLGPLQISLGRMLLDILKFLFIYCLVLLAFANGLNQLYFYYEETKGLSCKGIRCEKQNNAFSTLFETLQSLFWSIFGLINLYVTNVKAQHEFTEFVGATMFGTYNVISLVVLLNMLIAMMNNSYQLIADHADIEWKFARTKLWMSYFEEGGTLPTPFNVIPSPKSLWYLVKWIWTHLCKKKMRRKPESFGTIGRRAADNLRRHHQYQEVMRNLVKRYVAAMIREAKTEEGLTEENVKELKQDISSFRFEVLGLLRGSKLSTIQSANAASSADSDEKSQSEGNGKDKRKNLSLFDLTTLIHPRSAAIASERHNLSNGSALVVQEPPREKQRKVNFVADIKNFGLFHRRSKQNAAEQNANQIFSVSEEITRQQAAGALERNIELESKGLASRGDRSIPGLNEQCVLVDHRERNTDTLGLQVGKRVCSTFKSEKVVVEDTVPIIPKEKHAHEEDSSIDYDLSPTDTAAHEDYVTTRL

[16] = biological target: T6, Histone-lysine N-methyltransferase NSD2 (Homo sapiens, UniProt O96028); format: biochemical
T6 sequence (O96028 whole entry): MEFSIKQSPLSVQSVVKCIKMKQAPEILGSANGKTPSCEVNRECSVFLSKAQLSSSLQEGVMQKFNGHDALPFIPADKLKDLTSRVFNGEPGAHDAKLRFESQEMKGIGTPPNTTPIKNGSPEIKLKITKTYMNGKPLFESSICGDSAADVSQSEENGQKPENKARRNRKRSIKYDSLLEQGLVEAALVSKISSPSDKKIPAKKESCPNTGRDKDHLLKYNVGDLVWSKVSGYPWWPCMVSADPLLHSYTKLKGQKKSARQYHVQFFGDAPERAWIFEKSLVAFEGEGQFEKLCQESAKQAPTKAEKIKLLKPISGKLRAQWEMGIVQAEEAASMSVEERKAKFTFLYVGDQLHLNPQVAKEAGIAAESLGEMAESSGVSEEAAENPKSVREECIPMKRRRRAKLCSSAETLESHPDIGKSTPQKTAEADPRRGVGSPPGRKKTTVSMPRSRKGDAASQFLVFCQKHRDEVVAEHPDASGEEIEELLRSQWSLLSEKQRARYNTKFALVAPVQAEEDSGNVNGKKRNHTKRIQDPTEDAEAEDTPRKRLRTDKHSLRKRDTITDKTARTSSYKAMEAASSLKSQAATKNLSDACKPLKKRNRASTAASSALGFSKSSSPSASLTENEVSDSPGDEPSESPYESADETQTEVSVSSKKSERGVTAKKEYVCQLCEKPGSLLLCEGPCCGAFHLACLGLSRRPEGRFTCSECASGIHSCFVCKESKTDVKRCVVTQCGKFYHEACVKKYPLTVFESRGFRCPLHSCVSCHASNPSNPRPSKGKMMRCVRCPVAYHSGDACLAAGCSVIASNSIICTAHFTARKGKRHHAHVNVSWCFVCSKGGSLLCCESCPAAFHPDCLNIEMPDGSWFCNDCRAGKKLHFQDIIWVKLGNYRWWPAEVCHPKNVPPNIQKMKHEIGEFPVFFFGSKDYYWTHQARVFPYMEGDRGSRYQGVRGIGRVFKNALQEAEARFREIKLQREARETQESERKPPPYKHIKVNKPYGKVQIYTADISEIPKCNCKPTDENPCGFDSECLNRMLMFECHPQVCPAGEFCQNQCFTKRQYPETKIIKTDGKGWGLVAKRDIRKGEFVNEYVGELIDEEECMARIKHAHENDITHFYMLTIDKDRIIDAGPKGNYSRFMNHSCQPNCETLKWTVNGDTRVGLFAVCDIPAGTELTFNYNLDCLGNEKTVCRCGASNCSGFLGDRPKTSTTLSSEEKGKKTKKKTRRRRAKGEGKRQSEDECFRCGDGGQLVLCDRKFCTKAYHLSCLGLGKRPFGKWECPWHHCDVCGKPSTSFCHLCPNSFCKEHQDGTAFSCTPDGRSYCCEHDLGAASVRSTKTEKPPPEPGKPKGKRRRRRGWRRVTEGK

## O=C1c2cccc3cccc(c23)C(=O)N1Cc1cccnc1
[1]
  IC50: 19.1 µM (active)
Bcl-2-related protein A1
  IC50: > 20 µM (inactive)
[2]
  IC50: 18.1 µM (active)

## C=CC[n+]1c2n(c3ccccc3c1=O)CCCCC2
[3]
  IC50: 6.84 µM (active)
[4]
  IC50: 3.57 µM (active)

## COc1ccc2c3c([nH]c2c1)[C@H](CO)N(C(=O)Nc1ccc(F)cc1)CC31CCN(Cc2cc(-c3ccccc3)on2)CC1
[5]
  AC50: 0.876 µM (active)
[6]
  AC50: 30.3 µM (active)
[7]
  AC50: 1.43 µM (active)
[8]
  AC50: 1.47 µM (active)
[9]
  AC50: 0.452 µM (active)

## Nc1nc(SCc2nc(-c3ccccc3)no2)nc(O)c1-c1ccccc1
[10]
  IC50: > 100 µM (active)

## Clc1ccc(CN2CCCN(Cc3ccc(Cl)cc3)C2c2cc3ccccc3c3ccccc23)cc1
Cytochrome P450 2C9
  AC50: inconclusive

## O=C(O)c1cccc(-n2cccc2/C=C2\NC(=O)N(Cc3ccc(F)cc3)C2=O)c1
[3]
  IC50: 29.7 µM (active)
[11]
  EC50: > 150 µM (not active)
[4]
  IC50: 11.4 µM (active)
[12]
  EC50: > 300 µM (not active)

## Cc1ccc2cc3c(nc2c1)N(c1ccccc1)CC3
[1]
  IC50: 18.4 µM (active)
Bcl-2-related protein A1
  IC50: > 20 µM (inactive)
[2]
  IC50: > 20 µM (inactive)

## CN1c2ccsc2/C(=N/NC(=O)c2c(F)cccc2F)CS1(=O)=O
[10]
  IC50: > 100 µM (active)

## C[C@@H]1CN([C@H](C)CO)C(=O)c2cccc(NC(=O)c3nc4ccccc4s3)c2O[C@H]1CN(C)C(=O)NC1CCCCC1
[5]
  AC50: 0.152 µM (active)
[6]
  AC50: > 100 µM (inactive)
[7]
  AC50: 2.73 µM (active)
[8]
  AC50: 0.114 µM (active)
[9]
  AC50: 0.196 µM (active)

## CN1CCN(C(=O)c2ccc(N(C)S(=O)(=O)c3cccs3)cc2)CC1
[10]
  IC50: > 100 µM (active)

## Cc1ccc(C(=O)NNC(=O)c2nn(-c3ccc(F)cc3)ccc2=O)cc1
[1]
  IC50: 7.29 µM (active)
Bcl-2-related protein A1
  IC50: > 20 µM (inactive)
[2]
  IC50: 8.19 µM (active)

## COc1cccc(C(=O)Nc2cc(C(F)(F)F)ccc2Cl)c1
Cytochrome P450 2C9
  AC50: inconclusive
Cytochrome P450 2D6
  AC50: 28.2 µM (inconclusive)

## O=c1cc(O)nc(SCc2ccccc2Cl)[nH]1
[10]
  IC50: > 100 µM (active)

## O=C(NCc1ccco1)C1CCCN(S(=O)(=O)c2cccc3nsnc23)C1 (configuration not stated)
[10]
  IC50: > 100 µM (active)

## Cc1ccc(N(C(=O)c2snc(C(N)=O)c2N)C(C(=O)NCCC(C)C)c2ccco2)cc1 (configuration not stated)
[1]
  IC50: 17 µM (active)
Bcl-2-related protein A1
  IC50: > 20 µM (inactive)
[13]
  EC50: > 60 µM (not active)
[14]
  EC50: 1.1 µM (active)
[2]
  IC50: 10.9 µM (active)

## N#Cc1ccc(-c2ccc([C@@H]3[C@@H]4CN(C(=O)C5CCCC5)C[C@H]3N4)cc2)cc1
[5]
  AC50: 3.53 µM (active)
[6]
  AC50: 51 µM (active)
[7]
  AC50: 2.72 µM (active)
[8]
  AC50: 3.48 µM (active)
[9]
  AC50: 2.25 µM (active)

## Nc1ccc2[nH]c(-c3cccc(-c4nc5cc(N)ccc5[nH]4)n3)nc2c1
[1]
  IC50: 9 µM (active)
Bcl-2-related protein A1
  IC50: 5.82 µM (active)
[11]
  EC50: > 300 µM (not active)
[12]
  EC50: > 300 µM (not active)
[2]
  IC50: 8.28 µM (active)

## CNCCCOc1ccc2c(c1)CCC2
[15]
  EC50: 4.73 µM (active)
[16]
  AC50: > 20 µM (inactive)

## O=C(O)c1cc2nc(-c3cccs3)cc(C(F)(F)F)n2n1
[3]
  IC50: > 100 µM (inactive)
[4]
  IC50: 12.1 µM (active)
